In ChEMBL document CHEMBL1201862, “PubChem BioAssay data set” (2004):
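Values below derive from 48-hour exposures of cells grown in 96-well plates, with endpoints linearly interpolated between the two concentrations bracketing the appropriate inhibition level. GI50 marks 50% less growth.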 Activity calls are given as the source filed them. Rule as the data show it: active = GI50 up to about 1.1 µM and inactive = higher.

Columns and labels:
Test in all cases: growth of human tumour cells (NCI), 48 h
[1] = test system: A549
[2] = test system: ACHN
[3] = test system: CAKI-1
[4] = test system: COLO 205
[5] = test system: DU-145
[6] = test system: HOP-62
[7] = test system: HOP-92
[8] = test system: Hs-578T
[9] = test system: IGROV-1
[10] = test system: KM12
[11] = test system: MDA-MB-231
[12] = test system: NCI-H226
[13] = test system: NCI/ADR-RES
[14] = test system: OVCAR-3
[15] = test system: OVCAR-5
[16] = test system: SF-539
[17] = test system: SN12C
[18] = test system: TK-10
[19] = test system: UO-31
[20] = test system: RXF 393

Measured: GI50

Nc1ccc(C(=O)O)cc1 [AMINOBENZOIC ACID]
inactive: [1] > 100 µM | [2] > 100 µM | [3] > 100 µM | [4] > 100 µM | [5] > 100 µM | [6] > 100 µM | [7] > 100 µM | [8] > 100 µM | [9] > 100 µM | [10] > 100 µM | [11] 28.1 µM | [12] > 100 µM | [13] > 100 µM | [14] > 100 µM | [15] > 100 µM | [16] > 100 µM | [17] 28.7 µM | [18] > 100 µM | [19] > 100 µM

O=C1CSC(/C=C/c2ccccc2)N1c1ccc(-n2c(-c3ccccc3)nc3ccccc3c2=O)cc1 (stereo not given)
inactive: [1] > 100 µM | [2] > 10 µM | [3] > 100 µM | [4] > 100 µM | [5] > 100 µM | [6] 42.7 µM | [7] > 100 µM | [8] > 100 µM | [9] 74.3 µM | [10] 33.1 µM | [11] > 100 µM | [12] 48.8 µM | [13] 59.2 µM | [14] > 100 µM | [15] > 100 µM | [16] 71.4 µM | [17] > 100 µM | [18] > 100 µM | [19] 16.8 µM

C[C@@H](NC(=O)[C@@H]1C[C@]1(C)COC(=O)c1cc([N+](=O)[O-])cc([N+](=O)[O-])c1)c1cccc2ccccc12
inactive: [1] > 100 µM | [2] 33.7 µM | [3] > 100 µM | [4] > 100 µM | [5] > 100 µM | [6] 53 µM | [7] 80.2 µM | [8] 20 µM | [9] 70.3 µM | [10] > 100 µM | [11] > 100 µM | [12] > 100 µM | [13] > 100 µM | [14] 24.3 µM | [15] > 100 µM | [20] 12.6 µM | [17] > 100 µM | [18] > 100 µM | [19] > 100 µM

C=CC[C@H](C)CCC(=O)N1[C@H]2CC3CC[C@@]2(CS1(=O)=O)C3(C)C
inactive: [1] 39.8 µM | [2] 40.7 µM | [3] 80.4 µM | [4] 34.3 µM | [5] > 100 µM | [6] > 100 µM | [7] > 100 µM | [8] 30.6 µM | [9] > 100 µM | [10] 39.3 µM | [11] > 100 µM | [12] 51.5 µM | [13] 44.2 µM | [15] > 100 µM | [20] 49 µM | [17] 85.5 µM | [18] > 100 µM | [19] 40.7 µM

O=c1[nH]nc(Cc2ccccc2)n1/N=C/c1c[nH]c2ccccc12
inactive: [1] 66.1 µM | [2] > 100 µM | [3] 16.7 µM | [4] > 100 µM | [5] > 100 µM | [6] 60.7 µM | [7] > 100 µM | [8] 25.4 µM | [9] > 100 µM | [10] > 100 µM | [11] 59 µM | [12] > 100 µM | [13] 82.6 µM | [14] > 100 µM | [15] > 100 µM | [16] > 100 µM | [17] > 100 µM | [18] 35.3 µM | [19] > 100 µM

CN(C)/C=N/NC(=O)/C(C#N)=C/N(C)C
inactive: [1] > 100 µM | [2] > 100 µM | [3] > 100 µM | [4] > 100 µM | [5] > 100 µM | [6] > 100 µM | [8] > 100 µM | [9] > 100 µM | [10] > 100 µM | [11] > 100 µM | [12] > 100 µM | [13] > 100 µM | [14] > 100 µM | [15] > 100 µM | [20] > 100 µM | [16] 64.7 µM | [17] > 100 µM | [18] > 100 µM | [19] > 100 µM

CC(C)c1cc(CN(C)C)c(O)c(C(C)(C)C)c1
inactive: [1] 23.2 µM | [2] 16.8 µM | [3] 23.1 µM | [4] 20.7 µM | [5] 36.4 µM | [6] 22.8 µM | [8] 22.6 µM | [9] 47.1 µM | [10] 21.4 µM | [11] 36.2 µM | [12] 21.5 µM | [13] 65.3 µM | [14] 17.4 µM | [15] > 100 µM | [20] 18.8 µM | [17] 18.9 µM | [18] 35.1 µM | [19] 23.1 µM

O=c1c2ccccc2sc2cccc(NCCCN3CCN(CCCNc4cccc5sc6ccccc6c(=O)c45)CC3)c12
inactive: [1] > 100 µM | [2] > 100 µM | [3] > 100 µM | [4] > 100 µM | [5] > 100 µM | [6] > 100 µM | [8] 52.7 µM | [9] > 100 µM | [10] > 100 µM | [11] > 100 µM | [12] > 100 µM | [13] > 100 µM | [14] > 100 µM | [15] > 100 µM | [20] > 100 µM | [16] > 100 µM | [17] > 100 µM | [18] > 100 µM | [19] > 100 µM

Cc1cc(C)nc(NC(P(=O)(O)O)P(=O)(O)O)n1
inactive: [1] > 100 µM | [2] > 100 µM | [3] > 100 µM | [4] > 100 µM | [5] > 100 µM | [6] > 100 µM | [8] > 100 µM | [9] > 100 µM | [10] > 100 µM | [11] > 100 µM | [12] > 100 µM | [13] > 100 µM | [14] > 100 µM | [15] > 100 µM | [20] > 100 µM | [16] > 100 µM | [18] > 100 µM | [19] > 100 µM

N#CC(C#N)=CNCCN1CCN(C=C(C#N)C#N)CC1
inactive: [1] > 100 µM | [2] > 100 µM | [3] > 100 µM | [4] > 100 µM | [5] > 100 µM | [6] > 100 µM | [7] > 100 µM | [8] > 100 µM | [9] > 100 µM | [10] > 100 µM | [11] > 100 µM | [12] > 100 µM | [13] > 100 µM | [14] > 100 µM | [15] > 100 µM | [16] > 100 µM | [17] > 100 µM | [18] > 100 µM | [19] > 100 µM

Nc1cc(F)ccc1CC(=O)O
inactive: [1] > 100 µM | [2] > 100 µM | [3] > 100 µM | [4] > 100 µM | [5] > 100 µM | [6] > 100 µM | [8] > 100 µM | [9] > 100 µM | [10] > 100 µM | [11] > 100 µM | [12] > 100 µM | [13] > 100 µM | [15] > 100 µM | [20] > 100 µM | [16] > 100 µM | [17] > 100 µM | [18] > 100 µM | [19] > 100 µM

CCSc1s/c(=N/c2ccc(/N=c3\sc(C)c(SC)s3)cc2)sc1-c1ccc(C)cc1
inactive: [1] > 100 µM | [2] > 100 µM | [3] > 100 µM | [4] > 100 µM | [5] > 100 µM | [6] > 100 µM | [7] > 100 µM | [8] > 100 µM | [9] > 100 µM | [10] > 100 µM | [11] > 100 µM | [13] > 100 µM | [14] > 100 µM | [15] > 100 µM | [20] > 100 µM | [16] > 100 µM | [17] > 100 µM | [18] > 100 µM | [19] > 100 µM

NC(Cc1c[nH]c2ccc([N+](=O)[O-])cc12)C(=O)O (stereo not given)
inactive: [1] > 100 µM | [2] > 100 µM | [3] > 100 µM | [4] > 100 µM | [5] > 100 µM | [6] > 100 µM | [8] 24.7 µM | [9] > 100 µM | [10] > 100 µM | [11] > 100 µM | [12] > 100 µM | [13] > 100 µM | [14] > 100 µM | [15] > 100 µM | [20] > 100 µM | [17] > 100 µM | [18] > 100 µM | [19] > 100 µM

Oc1[nH]c(Nc2cccc(CC(F)(F)F)c2)nc2ncnc1-2
inactive: [1] > 100 µM | [2] > 100 µM | [3] > 100 µM | [4] > 100 µM | [5] > 100 µM | [6] > 100 µM | [7] > 100 µM | [8] > 100 µM | [9] > 100 µM | [10] > 100 µM | [11] > 100 µM | [12] > 100 µM | [13] > 100 µM | [14] > 100 µM | [15] > 100 µM | [16] > 100 µM | [17] > 100 µM | [18] > 100 µM | [19] > 100 µM

CC(=O)OC1CCC2(C)C(CCC3C4CC=C(C5(C)OCCO5)C4(C)CCC32)C1 (stereo not given)
inactive: [1] 26.7 µM | [2] 25.1 µM | [3] 28.3 µM | [4] 17.6 µM | [5] 41.3 µM | [6] 19.1 µM | [8] 23.3 µM | [9] 24.2 µM | [10] 23.6 µM | [11] 33.2 µM | [12] 25.9 µM | [13] 20.6 µM | [14] 19.7 µM | [15] 22.1 µM | [20] 17.7 µM | [16] 20.5 µM | [17] 19.6 µM | [18] 22.5 µM | [19] 25.4 µM
